Assay results: ChEMBL document CHEMBL5303304, “EUbOPEN Chemogenomics Library - IncuCyte” (2023)

Key:
Type in all cases: toxicity, cell-based
HEK-293T = assay: Incucyte cell viability with HEK293T; conditions: human, 10 µM, compound concentration 10 uM
Fibroblast = assay: Incucyte cell viability with human fibroblast; conditions: 10 µM, compound concentration 10 uM
U2OS = assay: Incucyte cell viability with U2OS; conditions: human, 10 µM, compound concentration 10 uM
Further: unitless GR value; below 1 slowed growth and below 0 cell loss.

| SMILES | Growth Rate (HEK-293T; 0 h, replicate number 1) | Growth Rate (HEK-293T; 0 h, replicate number 2) | Growth Rate (HEK-293T; 24 h, replicate number 2) | Growth Rate (Fibroblast; 0 h, replicate number 1) | Growth Rate (U2OS; 0 h, replicate number 1) | Growth Rate (U2OS; 24 h, replicate number 2) | Growth Rate (HEK-293T; 24 h, replicate number 1) | Growth Rate (Fibroblast; 0 h, replicate number 2) | Growth Rate (Fibroblast; 6 h, replicate number 2) | Growth Rate (Fibroblast; 12 h, replicate number 2) | Growth Rate (Fibroblast; 18 h, replicate number 1) | Growth Rate (Fibroblast; 18 h, replicate number 2) | Growth Rate (Fibroblast; 24 h, replicate number 2) | Growth Rate (U2OS; 12 h, replicate number 1) | Growth Rate (U2OS; 12 h, replicate number 2) | Growth Rate (U2OS; 18 h, replicate number 1) | Growth Rate (U2OS; 24 h, replicate number 1) | Growth Rate (HEK-293T; 12 h, replicate number 2) | Growth Rate (U2OS; 6 h, replicate number 2) | Growth Rate (U2OS; 18 h, replicate number 2) | further results |
| --- | --- | --- | --- | --- | --- | --- | --- | --- | --- | --- | --- | --- | --- | --- | --- | --- | --- | --- | --- | --- | --- |
| Cn1ncc(NC(=O)c2nc(-c3c(F)cccc3F)sc2N)c1N1CC[C@@H](N)[C@H](F)CC1 | -1 | -0.31 | 0.77 | -1 | -1 | 0.96 |  |  |  |  |  |  |  |  |  |  |  |  |  |  |  |
| NC1(c2ccc(-c3nc4c(O)ccnn4c3-c3ccccc3)cc2)CCC1 | -0.07 | -0.33 |  | -1 |  | 0.93 | 0.95 | -0.33 | 0.35 | 0.9 | 0.95 | 0.83 | 0.93 | 0.63 | 0.83 | 0.66 | 0.89 |  |  |  | Growth Rate (U2OS; 0 h, replicate number 2): -0.99; Growth Rate (U2OS; 6 h, replicate number 1): 0.34 |
| CN(C(=O)c1cnn2cccnc12)c1cc2c(cc1N1CCOCC1)C(=O)N(C[C@@H](F)C(C)(C)O)C2 | 0.82 | 0.66 | 0.92 |  | 0.99 | 0.85 |  | 0.71 | 0.95 | 0.89 | 0.7 |  |  | 0.98 | -0.78 | 0.75 |  | 0.85 | 0.75 | 0.92 | Growth Rate (HEK-293T; 6 h, replicate number 2): 0.77; Growth Rate (HEK-293T; 18 h, replicate number 2): 1; Growth Rate (Fibroblast; 6 h, replicate number 1): 0.38; Growth Rate (Fibroblast; 12 h, replicate number 1): 0.84; Growth Rate (Fibroblast; 24 h, replicate number 1): 0.82; Growth Rate (U2OS; 6 h, replicate number 1): 0.54 |
| COc1ccccc1Nc1nc(-c2nn(Cc3c(F)cc(OCCCO)cc3F)c3ccccc23)ncc1OC | 0.17 |  |  |  |  | 0.96 |  | -0.85 | 0.53 | 0.41 | 0.85 | 0.58 | 0.85 |  | 0.93 |  |  |  | 0.89 | 1 | Growth Rate (Fibroblast; 6 h, replicate number 1): 0.3; Growth Rate (Fibroblast; 12 h, replicate number 1): 0.59; Growth Rate (Fibroblast; 24 h, replicate number 1): 0.77 |
| COc1cnccc1Nc1nc(-c2nn(Cc3c(F)cc(OCCO)cc3F)c3ccccc23)ncc1OC | -1 | -0.96 | 0.21 |  | -1 | 0.09 |  |  | 0.31 | 0.04 | -0.14 | -0.07 | -0.03 | -0.2 | 0.06 | -0.22 | -0.17 | -0.01 | -0.04 | 0.21 | Growth Rate (HEK-293T; 6 h, replicate number 2): -0.05; Growth Rate (HEK-293T; 18 h, replicate number 2): 0.13; Growth Rate (Fibroblast; 6 h, replicate number 1): -0.29; Growth Rate (Fibroblast; 12 h, replicate number 1): -0.23; Growth Rate (Fibroblast; 24 h, replicate number 1): -0.14; Growth Rate (U2OS; 0 h, replicate number 2): -0.09; Growth Rate (U2OS; 6 h, replicate number 1): -0.05 |
| CN(C)CC#Cc1ccc2[nH]c3c(c2c1)-c1nc(N)ncc1CCC3 | -0.2 | 0.54 | -0.05 | -1 | -0.89 | 0.36 | 0.12 |  |  | 0.69 | 0.27 | 0.42 | 0.33 | 0.96 | 0.59 | 0.86 | 0.86 | -0.38 | 0.82 | 0.45 | Growth Rate (HEK-293T; 6 h, replicate number 1): -0.19; Growth Rate (HEK-293T; 6 h, replicate number 2): -0.58; Growth Rate (HEK-293T; 12 h, replicate number 1): -0.03; Growth Rate (HEK-293T; 18 h, replicate number 1): 0.11; Growth Rate (HEK-293T; 18 h, replicate number 2): -0.23; Growth Rate (Fibroblast; 6 h, replicate number 1): 0.76; Growth Rate (Fibroblast; 12 h, replicate number 1): 0.45; Growth Rate (Fibroblast; 24 h, replicate number 1): 0.2 |
| CCOc1ccc(S(=O)(=O)Nc2ccc(Cl)cc2C#Cc2cnc(C(=O)[O-])cc2OC)c2ncccc12.[K+] | 0.28 | -0.2 | 0.87 | -0.78 | -0.87 | 0.81 | 0.98 |  | 0.49 | 0.49 | 1 | 0.43 | 0.53 | 0.95 | -0.91 | 0.94 |  | 0.97 | 0.58 | -0.85 | Growth Rate (HEK-293T; 6 h, replicate number 2): 0.66; Growth Rate (HEK-293T; 18 h, replicate number 2): 0.87; Growth Rate (Fibroblast; 24 h, replicate number 1): 0.99; Growth Rate (U2OS; 0 h, replicate number 2): 0.5 |
| CCCS(=O)(=O)Nc1ccc(F)c(Nc2ncnc3cnc(-n4cnc(C)c4)nc23)c1F | -0.79 |  | 0.8 | -0.99 |  | 0.67 | 0.71 |  | 0.4 | 0.62 | 0.53 | 0.69 | 0.77 | 0.7 | 0.63 | 0.78 | 0.97 | 0.72 | 0.61 | 0.84 | Growth Rate (HEK-293T; 6 h, replicate number 2): 0.5; Growth Rate (HEK-293T; 12 h, replicate number 1): 0.77; Growth Rate (HEK-293T; 18 h, replicate number 1): 0.75; Growth Rate (HEK-293T; 18 h, replicate number 2): 0.73; Growth Rate (Fibroblast; 6 h, replicate number 1): 0.75; Growth Rate (Fibroblast; 12 h, replicate number 1): 0.52; Growth Rate (Fibroblast; 24 h, replicate number 1): 0.53; Growth Rate (U2OS; 6 h, replicate number 1): 0.75 |
| O=C(Nc1snnc1C(=O)Nc1ccc(N2CCCC2)cc1)c1cncc(C(F)(F)F)c1 | 0.43 | 0.78 | 0.9 | -1 | -1 |  | 0.91 | -0.64 | 0.26 | 0.11 |  | 0.43 | 0.59 | -0.58 | 0.81 |  |  | 0.8 | 0.89 |  | Growth Rate (HEK-293T; 6 h, replicate number 2): 0.54; Growth Rate (HEK-293T; 12 h, replicate number 1): 0.99; Growth Rate (HEK-293T; 18 h, replicate number 1): 0.92; Growth Rate (HEK-293T; 18 h, replicate number 2): 0.86; Growth Rate (Fibroblast; 24 h, replicate number 1): 0.96 |
| CN1CC(=O)N(C)c2cnc(Nc3ccc(NC(=O)Nc4cccc(C(=O)O)c4)cc3)nc21 | -1 |  |  | -1 | -0.94 | 1 | 0.72 | -0.25 |  | 0.81 |  | 0.99 |  | 0.91 | 0.75 | 0.89 | 0.95 |  | 0.73 | 0.97 | Growth Rate (HEK-293T; 18 h, replicate number 1): 0.83; Growth Rate (U2OS; 0 h, replicate number 2): 0.52; Growth Rate (U2OS; 6 h, replicate number 1): 0.82 |
| CN(C)c1ccc(-c2cc3ncccc3c(OCCCCO)n2)cc1.O=C(O)C(F)(F)F | -0.94 | -0.26 | 0.87 |  | -1 | 0.64 |  | -0.45 | 0.29 | 0.37 |  | 0.6 | 0.65 | 0.85 | 0.55 | 0.66 | 0.91 |  | -0.83 | 0.67 |  |
| COc1cc(C(N)=O)ccc1Nc1ncc2c(n1)N(CCC(C)C)[C@H](C)C(=O)N2C | -0.98 | -1 |  | -0.99 | -1 | 0.27 | 0.53 | -0.68 |  |  |  |  | 0.77 | -0.71 | 0.18 | 0.37 | -0.55 |  | 0.39 | 0.4 |  |
| O=C1NC(=NCc2cccs2)SC1=Cc1ccc2ncccc2c1 | -1 | -0.11 | 0.54 | -1 | -1 | 0.39 | 0.75 | -0.82 |  |  |  |  |  | 0.27 | 0.54 | 0 | 0.51 | 0.83 | 0.87 | 0.45 | Growth Rate (HEK-293T; 18 h, replicate number 1): 0.84; Growth Rate (HEK-293T; 18 h, replicate number 2): 0.53; Growth Rate (U2OS; 6 h, replicate number 1): 0.68 |
| COCCNC1CCC(Nc2cc(-c3csc(NCC4(C#N)CCOCC4)n3)c(Cl)cn2)CC1 (centres undefined) | -0.55 | 0.97 | -0.35 | -1 | -1 | -0.03 | -0.24 |  |  | 0.24 | 0.16 | -0.14 | -0.16 |  | 0.08 | -0.21 |  | -0.48 | 0.51 | 0.04 | Growth Rate (HEK-293T; 6 h, replicate number 1): -0.19; Growth Rate (HEK-293T; 6 h, replicate number 2): -0.42; Growth Rate (HEK-293T; 12 h, replicate number 1): -0.33; Growth Rate (HEK-293T; 18 h, replicate number 1): -0.33; Growth Rate (HEK-293T; 18 h, replicate number 2): -0.43; Growth Rate (Fibroblast; 6 h, replicate number 1): 0.99; Growth Rate (Fibroblast; 12 h, replicate number 1): 0.4; Growth Rate (Fibroblast; 24 h, replicate number 1): 0.14 |
